Experimental data published in patent US5606038A, “Amphiphilic polyene macrolide antibiotic compounds” (Competitive Technologies, Inc., priority 1995, dated 1997).
≈ marks a conversion by molar mass, not a printed value. Read-outs that look alike come from different tables or passages of the source.

Assays:
[1] = test system: Cryptococcus neoformans (isolate NIH C-1); assay: MIC against infecting isolate of Example VI; assay type: cell-based
[2] = test system: Candida albicans (isolate NIH A); assay: survival of mice infected with Candida albicans (Example V); assay type: in vivo, Candida albicans in ICR mice; details: i.p. once per day for ten days, Example II 30 mg/kg, Amphotericin B 1 mg/kg
Excerpt: Ten immunocompetent ICR mice weighing 30 g each in three groups were inoculated intravenously with 3.2×10^6 colony forming units of Candida albicans (isolate NIH A) per mouse.

Compound: COCCOCCOCCOCCOCCOCCNC(=O)[C@H]1[C@@H]2C[C@@H](O[C@@H]3O[C@H](C)[C@@H](O)[C@H](N)[C@@H]3O)/C=C/C=C/C=C/C=C/C=C/C=C/C=C/[C@H](C)[C@@H](O)[C@@H](C)[C@H](C)OC(=O)C[C@H](O)C[C@H](O)CC[C@@H](O)[C@H](O)C[C@H](O)C[C@](O)(C[C@@H]1O)O2 [Example II]
- MIC [1]: ≤ 6.06 µg/mL
- MIC ([1]; 48 h): 1.51 µg/mL (≈ 1.26 µM)
- MIC ([1]; 72 h): 3.03 µg/mL (≈ 2.52 µM)
- percent survival ([2]; day 2 post-infection): 100%
- percent survival ([2]; day 3 post-infection): 100%
- percent survival ([2]; day 4 post-infection): 100%
- percent survival ([2]; day 5 post-infection): 100%
- percent survival ([2]; day 6 post-infection): 100%
- percent survival ([2]; day 7 post-infection): 90%
- percent survival ([2]; day 30 post-infection): 90%
